Assay results reported in publication PMC10947197, “Acid‐Resistant BODIPY Amino Acids for Peptide‐Based Fluorescence Imaging of GPR54 Receptors in Pancreatic Islets” (Angewandte Chemie (International Ed. in English), 2023).
Numbered stars: 1 amine (or outer) side, 2 acyl side, 3 side chain; on linkers, the order of the positions; unused ones are H or OH. Square brackets hold non-standard residues; d marks the D form. Peptide text beside a SMILES is read from it. X1 = CC1=CC(C)=[N+]2C1=C(c1cccc(-c3[nH]c4ccccc4c3C[C@H](N[*:1])C(=O)[*:2])c1)c1c(C)cc(C)n1[B-]2(C#N)C#N

What was measured:
[1] = target: T1, hGPR54 (Homo sapiens, UniProt Q969F8); assay: Calcium mobilization assay in HEK293 cells stably expressing hGPR54; format: cell-based; conditions: HEK293 cells stably expressing hGPR54, 50,000 cells per well, Fluo4 NW Ca2+ assay kit, GraphPad Prism 9 sigmoidal fit; read-out: EC50 (Ca2+ influx, agonist)
T1 construct: expressed in transfected cells
T1 sequence (Q969F8 whole entry): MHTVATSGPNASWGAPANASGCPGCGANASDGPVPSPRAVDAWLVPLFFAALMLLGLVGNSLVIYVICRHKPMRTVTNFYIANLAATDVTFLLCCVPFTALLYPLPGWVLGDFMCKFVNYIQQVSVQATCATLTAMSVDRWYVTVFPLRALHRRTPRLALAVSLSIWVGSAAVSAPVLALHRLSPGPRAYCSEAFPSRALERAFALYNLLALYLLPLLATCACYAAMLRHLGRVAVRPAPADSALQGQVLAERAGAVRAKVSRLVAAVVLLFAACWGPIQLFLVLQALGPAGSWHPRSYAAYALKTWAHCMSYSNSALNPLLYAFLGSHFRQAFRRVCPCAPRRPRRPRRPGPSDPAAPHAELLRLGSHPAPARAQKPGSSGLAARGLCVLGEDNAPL

[2] = Stability analysis of Trp-BODIPY FlAAs under SPPS conditions; conditions: r.t.; for Stability (purity by HPLC-MS): 70 μM; for Chemical stability (HPLC-MS): 70 µM;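 as to all read-outs here: chemical integrity of the BODIPY-labelled tryptophan amino acids checked after exposure to reagents used in solid-phase peptide synthesis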
Method: Next, we studied the stability of Trp‐BODIPY PLUS in TFA and compared it to that of Trp‐BODIPY (Table 2).
Analysis of t he chemical st abilit y of T rp-BO DI PY and T rp-
BODIPY PLUS under conve nt ion al SPPS condit i ons. Amino aci ds were di lut ed w it h
dif f erent rea gent mixt ur es (70 µ M , f inal v olum e 10 0 uL) a nd st irre d at r. t . f or 1 h
( c ondit i ons A-B and E-H) or 5 m i n ( c o ndit i ons C an d D).
Fmoc-T rp -BO DI PY(X)2-OH
En t ry Conditions X = F X = CN

[3] = Integrity of BODIPY core in crude peptides after cleavage with 95% TFA (HPLC-MS); format: physicochemical; conditions: crude peptide
Source text: To study the application of Trp‐BODIPY PLUS for SPPS of fluorogenic peptides, we first prepared analogues of the model linear sequence KYRAE, which contains a range of non‐polar, positively‐charged and negatively‐charged residues with different PGs (e.g., Boc, tBu, Pbf). We performed the synthesis using standard Fmoc/tBu SPPS conditions (e.g., OxymaPure and 1‐ cyano‐2‐ethoxy‐2‐oxoethylidenaminooxy)dimethylamino‐mor‐pholino‐carbenium hexafluorophosphate (COMU) for couplings, piperidine:DMF (2 : 8) for Fmoc removal) and introduced Trp‐BODIPY PLUS at the N‐terminal end. We performed the cleavage of the labeled peptide (i.e., W(BODIPYplus)KYRAE, peptide 4, Figure 1) with 95 % TFA and compared the purity of the crude to that obtained when using the acid‐labile Trp‐BODIPY (i.e., W(BODIPY)KYRAE, peptide 5, Figure 1). […] Overall, we isolated the model peptide 4 in good yields >20 % and >95 % purity after HPLC purification (see Supporting Information for synthetic and characterization details).

[4] = tested on: apoptotic cells; conditions: ref [10e]; cited from earlier work
Source text: Next, we assessed whether incorporation of Trp‐BODIPY PLUS enabled retention of the molecular recognition features of bioactive peptides. […] Because Apo‐15 contains one Trp‐BODIPY residue within its sequence, we synthesized the corresponding analogue using Trp‐BODIPY PLUS as the FlAA.

CC(C)C[C@H](NC(=O)CNC(=O)[C@H](Cc1ccccc1)NC(=O)[C@H](CO)NC(=O)[C@H](CC(N)=O)NC(=O)[C@H](Cc1c[nH]c2ccccc12)NC(=O)[C@H](CC(N)=O)NC(=O)[C@@H](N)Cc1ccc(O)cc1)C(=O)N[C@@H](CCCNC(=N)N)C(=O)N[C@@H](Cc1ccccc1)C(N)=O [KP-10, reference compound]
EC50 [1]: 0.22 nM

CC1=CC(C)=[N+]2C1=C(c1cccc(-c3[nH]c4ccccc4c3C[C@H](NC(=O)OCC3c4ccccc4-c4ccccc43)C(=O)O)c1)c1c(C)cc(C)n1[B-]2(F)F [Trp-BODIPY, reference compound]
Stability (purity by HPLC-MS) ([2]; 2% N2H4 in DMF, 60 min): > 95% | Stability (purity by HPLC-MS) ([2]; 95% TFA, 2.5% DTT, 60 min, DCM): < 5% | Stability (purity by HPLC-MS) ([2]; 95% TFA, 2.5% H2O, 60 min, DCM): < 5% | Stability (purity by HPLC-MS) ([2]; 95% TFA, 2.5% TIS, 60 min, DCM): < 5% | Stability (purity by HPLC-MS) ([2]; 95% TFA, 5 min, DCM): < 5% | Stability (purity by HPLC-MS) ([2]; 95% TFA, 60 min, DCM): < 5% | Stability (purity by HPLC-MS) ([2]; I2 (5 eq) in MeOH, 60 min): 38% | Stability (purity by HPLC-MS) ([2]; Pd(PPh3)4 (0.1 eq), PhSiH3 (10 eq), 60 min, DCM): > 95% | Chemical stability (HPLC-MS) ([2]; Supplementary Table 2 entry A: 1% TFA, 2.5% DTT, 1 h): > 95% | Chemical stability (HPLC-MS) ([2]; Supplementary Table 2 entry B: 5% TFA, 2.5% DTT, 1 h): 34% | Chemical stability (HPLC-MS) ([2]; Supplementary Table 2 entry C: 95% TFA, 2.5% DTT, 5 min): 7% | Chemical stability (HPLC-MS) ([2]; Supplementary Table 2 entry D: 20% piperidine: DMF, 5 min): > 95% | Chemical stability (HPLC-MS) ([2]; Supplementary Table 2 entry E: 5% NaHCO3 (aq), 1 h): > 95% | Chemical stability (HPLC-MS) ([2]; Supplementary Table 2 entry F: 5% Na2CO3 (aq), 1 h): > 95% | Chemical stability (HPLC-MS) ([2]; Supplementary Table 2 entry G: 1% DIPEA: DMF, 1 h): > 95% | Chemical stability (HPLC-MS) ([2]; Supplementary Table 2 entry H: 0.1 M HOBt: TFE, 1 h): > 95% | Stability (purity by HPLC-MS) ([2]; TBAF (3 eq), 60 min, DCM): > 95%

CC1=CC(C)=[N+]2C1=C(c1cccc(-c3[nH]c4ccccc4c3C[C@H](NC(=O)[C@H](CC(N)=O)NC(=O)[C@@H](N)Cc3ccc(O)cc3)C(=O)N[C@@H](CC(N)=O)C(=O)N[C@@H](CO)C(=O)N[C@@H](Cc3ccccc3)C(=O)NCC(=O)N[C@@H](CC(C)C)C(=O)N[C@@H](CCCNC(=N)N)C(=O)N[C@@H](Cc3ccccc3)C(N)=O)c1)c1c(C)cc(C)n1[B-]2(C#N)C#N [peptide 7] (H-YN[X1]NSFGLRF-NH2)
EC50 [1]: 2.5 nM

W(BODIPY)KYRAE [peptide 5, model linear peptide KYRAE with acid-labile Trp-BODIPY at the N-terminal end]
Stability of BODIPY core after cleavage (in words) [3]: completely degraded

W(BODIPYplus)KYRAE [peptide 4, model linear peptide KYRAE with Trp-BODIPY PLUS at the N-terminal end]
Stability of BODIPY core after cleavage (in words) [3]: remained fully stable

cyclo(GRKKWFW(BODIPY)) (head to tail) [Apo-15]
Ca2+ dependence of apoptotic cell labelling (in words) [4]: independent on the concentration of Ca^2+ ions | Selective labelling of apoptotic cells (in words) [4]: fluorogenic probe for selective labeling of apoptotic cells
